Consider three compounds from article PMC5470993, “Discovery and characterization of small molecule Rac1 inhibitors” (Oncotarget, 2017).

Assay [1] concerns the target T1, Rac1 (His-Rac1) (Homo sapiens, UniProt P63000).
T1 construct: wild type by context
Put plainly: GST-PAK1 pull-down of Rac1-GTP-γS, immunoblot. In kind it is binding. A general note: A western blot detects proteins with antibodies after separation by electrophoresis.

The target in assay [2] is T2, Rac1 (endogenous, CD18/HPAF cells) (Homo sapiens, UniProt P63000).
T2 construct: endogenous Rac1 of CD18/HPAF human pancreatic cancer cells; Rac1-GTP captured with GST-PAK1 and blotted with Rac1 antibody 23A8
Kind of assay: Rac1-GTP pull-down with GST-PAK1 from EGF-stimulated cells, immunoblot. In kind it is cell-based. To be noted: intact cells, 2 h compound, then EGF 100 ng/ml 5 min.

Assay [3] deals with T1, Rac1 (His-Rac1). Put plainly: fluorescence polarization competition with mant-GDP. In kind it is binding.
Assay [4] concerns the target T1, Rac1 (His-Rac1). Put plainly: GST-PAK1 pull-down of Rac1-GTP-γS, immunoblot. Particulars: read-out: apparent binding affinity.

The structures appear in SMILES notation. Where two headings read alike, the source gives them in different places.

Consider `Cc1cc(C)cc(NC(=O)Cn2cc(C(=O)c3cccs3)c3ccccc32)c1` [#6, compound #6], for which the IC50 (in general, the concentration that inhibits the measured activity by half) at Rac1 (His-Rac1) [1] worked out at 0.088 ± 0.048 µM. Further, the midpoint of the response in assay [2], the EC50, lay at 22.4 ± 3.2 µM.

Consider `CC(=O)c1cccc(NC(=O)c2ccc(-c3cccc([N+](=O)[O-])c3)o2)c1` [#1, compound #1], for which the IC50 at Rac1 (His-Rac1) [1] (read-out: IC50) is 0.095 ± 0.021 µM. In addition, on Rac1 (His-Rac1) [3], the inhibition constant (Ki) (usually a measure of affinity in units of concentration, obtained from inhibition or displacement) was determined as 6.8 ± 1.4 µM. Further, in assay [2], the EC50 (as a rule, the midpoint of the concentration-response curve) came to 8.3 ± 1.7 µM.

Take `Nc1nc2c(ncn2[C@@H]2O[C@H](COP(=O)(O)OP(=O)(O)OP(O)(O)=S)[C@@H](O)[C@H]2O)c(=O)[nH]1` [GTP-γS]: the Kd at Rac1 (His-Rac1) [4] stood at 0.243 ± 0.093 µM.
